From US10117899B2, “Delivery methods and compositions for nuclease-mediated genome engineering in hematopoietic stem cells” (Sangamo BioSciences, Inc., priority 2013, dated 2018)

Columns and labels:
[1] = test system: NSG mice; experiment: Transplantation of gene targeted CD34+ cells in NSG mice, engraftment of human CD45+ and GFP+ cells; assay type: in vivo; conditions: for effect on in vivo differentiation of treated cells: addition to the in vitro culture, PB 14 weeks post-transplant; for fraction of mice successfully engrafted with GFP+ cells: delayed treatment and addition of SR1 and dmPGE2 used in combination
Description: For the in vivo studies, 8- to 11-week-old NOD-SCID-IL2Rg^−/− (NSG) mice were purchased from the Jackson laboratory. The experimental protocol was approved by the Institutional Animal Care and Use Committee of the San Raffaele Scientific Institute. At day 4 of culture, 3×10^5 gene targeted CD34+ cells (or 7.5×10^5 BM derived cells) were infused intravenously into the mice after sub-lethal irradiation (200 cGy).MDA3 human mammary carcinoma cell line was obtained by stable transduction of MDA-MB 231 cells with lentiviral vectors expressing the human cytokines GMCSF, IL-7 and IL-15 from the PGK promoter. 4×10^6MDA3 cells were implanted orthotopically in the mammary fat pad of NSG mice 14 weeks after CD34+ cells transplantation or in age-matched untransplanted NSG mice. Human CD45+ engraftment was followed by serial collections of blood from the mouse tail and, at the end of the experiment (12-23 weeks after transplantation), BM, spleen and thymus cells were harvested and analyzed. HumanT lymphocytes were enriched from mouse splenocytes using magnetic beads conjugated to anti human CD3 and CD28 antibodies (Dynabeads human T-activator CD3/CD28; Invitrogen), following the manufacturer instructions, and grown in Iscove's Modified Dulbecco's Media (IMDM) (GIBCO-BRL) supplemented with penicillin, streptomycin, 10% FBS and 5 ng/ml each of IL-7 and IL-15 (PeproTech).

[2] = test system: CD34+ cells; experiment: Gene targeting of CD34+ cell subpopulations in culture supplemented with SR1 and/or dmPGE2; assay type: cell-based, human
Procedure: CD34+ cells were either freshly purified from human cord blood after obtaining informed consent and upon approval by the San Raffaele Hospital Bioethical Committee, or purchased frozen from Lonza. 10^6 CD34+ cells/ml were stimulated in serum-free StemSpan medium (StemCell Technologies) supplemented with penicillin, streptomycin and human early-acting cytokines (stem cell factor (SCF) 100 ng/ml, Flt3 ligand (Flt3-L) 100 ng/ml, thrombopoietin (TPO) 20 ng/ml, and interleukin 6 (IL-6) 20 ng/ml; all purchased from Peprotech) for 24 or 48 hr and then infected with IDLVs at multiplicity of infection (MOI) 100-500. The following day the cells were electroporated with 175 μg/ml ZFNs encoding mRNAs (P3 Primary Cell 4D-Nucleofector X Kit, program EO 100; Lonza). For some experiments, the following drugs were supplemented to the culture media: 1 μM SR1 (Novartis) added at every medium change, and 10 μM PGE2 (Cayman) added at the beginning of the culture, 1 hour before and just after electroporation. For CFC assays, 800 cells were plated one day after electroporation in methylcellulose-based medium (MethoCult H4434, StemCell Technologies). Two weeks after plating, colonies were counted and identified according to morphological criteria.
Because cell cycle progression is a major requirement of HDR, and activation of the more primitive progenitors may require longer stimulation, we postponed the gene targeting procedure to the third day of culture (FIG. 3C). At this time, the cells are also likely to become more permissive to LV transduction. However, since increasing times of culture lead to increased differentiation, we also tested addition of the Aryl Hydrocarbon Receptor Antagonist (StemRegenin 1, SR1) and/or 16.16 dimethyl-prostaglandin E2 (dmPGE2) to the culture medium to promote progenitor expansion in conditions that have been reported to preserve the stemness of these cells (FIG. 3D).

[3] = 1 μM SR1 added to culture medium

SMILES	effect on in vivo differentiation of treated cells [1]	fraction of mice successfully engrafted with GFP+ cells [1] [%]	apoptotic rate of cells treated with or without dmPGE2 [2]	effect on percentage of GFP+ cells in all subpopulations ([2]; dmPGE2 added to culture, additive effects with SR1)	total human cell engraftment in the mice ([1]; after SR1 addition to the culture)	effect on overall yield of GFP+ CFC and early (CD133+) progenitors [2, 3]	effect on percentage of GFP+ cells within each subpopulation [2, 3]	effect on targeting efficiency ([2]; SR1 treatment)	effect on the more primitive fractions in culture ([2]; SR1 treatment)
CCCCC(C)(C)[C@H](O)/C=C/[C@H]1[C@H](O)CC(=O)[C@@H]1C/C=C\CCCC(=O)O [dmPGE2, 16.16 dimethyl-prostaglandin E2]	did not significantly affect	100	did not observe significant differences	further increased					
CC(C)n1cnc2c(NCCc3ccc(O)cc3)nc(-c3csc4ccccc34)nc21 [SR1, StemRegenin 1]	did not significantly affect	100			significantly increased	increased	slightly reduced	did not significantly influence	helped maintain the more primitive fractions in culture
